Several values for one entry are separate records, joined by “and”; a condition that tells them apart may be missing. Equal entries are not always repeated.
Legend:
[1] = tested on: T. brucei Lister 427 cells; assay: Nucleotide pool analysis (HPLC); type: cell-based, Trypanosoma brucei; conditions: 25 μM, versus untreated trypanosomes
Excerpt: (1 picture or pasted object on this page, not shown here)
The following primers were used: […]

[2] = tested on: RNAi clones targeting FLA1BP, EndoG, RHS5, BCKDHA in T. brucei NY-SM cells; assay: Susceptibility of RNAi clones targeting FLA1BP, EndoG, RHS5, BCKDHA; type: cell-based, Trypanosoma brucei brucei
Experimental: (§1) Susceptibility assays with NY-SM[51], BS221[48] and TbAT1-KO[48] (derived from BS221) cells were performed using 10 concentrations of a 4-fold compound dilution series starting at 64 µM. Parasites were seeded at 4 × 10^3 parasites per well and exposed to drug compound for 72 h, after which resazurin (final concentration of 10 µg mL^−1) was added to the plates. Fluorescence intensities were determined after 6 h.
The RNAi library[54] was induced for 68 h by the addition of 1 µg mL^−1 of tetracycline. After induction, the cells were exposed to different concentrations of 9 (corresponding to the IC98, IC99). Cells were maintained until a recovery of the resistant population was observed. Genomic DNA of the resistant parasite population was isolated, and the RNAi inserts were identified by PCR amplification, followed by cloning in highly competent Escherichia coli and sequencing. To validate the involvement of the identified genes, the RNAi inserts were back-cloned into a p2T7Bern vector[54] and transformed into NY-SM cells (the background strain of the RNAi library). The transformed NY-SM cells were cloned by limiting dilution. Two clones of each RNAi insert were exposed to tetracycline to induce the RNAi phenotype and subsequently subjected to different concentrations of 9 to determine the susceptibility of induced versus non-induced clones.
Drug susceptibility assays with induced clones were performed as described above for NY-SM cells, with an initial induction period of 68 h with 1 µg mL^−1 tetracycline prior to the start of the drug susceptibility assay.
Supplementary Figure 6: Drug sensitivity of RNAi clones
Supplementary Figure 6: Drug susceptibility of RNAi clones targeting (A) FLA1BP (FLA1 binding protein), (B) EndoG (Endonuclease G), (C) RHS5 (Retrotransposon Hotspotprotein 5), (D) BCKDHA (branched chain keto acid dehydrogenase, i.e. 2-oxoisovalerate dehydrogenase). Results are expressed as the mean IC50 (µM) ± SEM and are based on two independent experiments with two biological replicates. + = tetracycline-induced clones. - = non-induced clones. All experiments were performed with two independent RNAi clones (A and B). Source data are provided as a Source Data file. […]

T. b. brucei BS221 = assay: Susceptibility assay, BS221 cells; type: cell-based, Trypanosoma brucei brucei; conditions: for IC50: single determinations
Experimental: as §1

[3] = Metabolic stability, rat liver microsomes (phase I and II)
Experimental: (§2) Mouse, rat, and pooled human liver microsomes were purchased from a commercial source (Corning) and stored at -80 °C. NADPH generating system solutions A and B and UGT reaction mix solutions A and B (Corning) were kept at -20°C. The test compound and the reference compounds diclofenac (MW […]
(§3) microsomal stability assay was carried out based on the BD Biosciences Guidelines for Use (TF000017 Rev1.0) with minor adaptations. Metabolic stability of the compounds was studied through the CYP450 superfamily (phase I metabolism) by fortification with reduced nicotinamide adenine dinucleotide phosphate (NADPH) and through uridine glucuronosyl-transferase (UGT) enzymes (phase II metabolism) by fortification with uridine diphosphate glucuronic acid (UDPGA). For the CYP450 and other NADPH dependent enzymes, both compounds were incubated at 5 µM together with 0.5 mg mL-1 liver microsomes in potassium phosphate buffer in a reaction started by the addition of 1 mM NADPH […]
(§4) At these time points, 20 µL was withdrawn from the reaction mixture and 80 µL cold acetonitrile (ACN) containing the internal standard tolbutamide, was added to inactivate the enzymes and precipitate the proteins. The mixture was vortexed for 30 s and centrifuged at 4 °C for 5 min at 15,000 rpm. The supernatant was stored at -80°C until analysis. For the UGT enzymes, both compounds were incubated at 5 µM together with 0.5 mg mL-1 liver microsomes in a reaction started by the addition of 2 mM UDPGA cofactor. The corresponding loss of parent compound was determined using liquid chromatography (UPLC) (Waters AquityTM) coupled with tandem quadrupole mass spectrometry (MS²) (Waters XevoTM), equipped with an electrospray ionization (ESI) interface and operated in multiple reaction monitoring (MRM) mode. […]

[4] = Metabolic stability, pooled human liver microsomes (phase I and II)
Experimental: as §2, §3, §4

[5] = tested on: AT1-KO T. b. brucei strain (derived from BS221); assay: Susceptibility assay, TbAT1-KO (derived from BS221); type: cell-based, Trypanosoma brucei brucei
Experimental: as §1

Nc1ncnc2c1ccn2[C@@H]1O[C@H](CO)C[C@H]1O [Compound 9, 3’-deoxytubercidin]
effect on intracellular purine and pyrimidine nucleotide pools [1]: did not cause any change in the balance or total quantity of intracellular purine and pyrimidine nucleotides
susceptibility of tetracycline-induced versus non-induced clones, remaining four constructs [2]: no significant differences
IC50 ([2]; BCKDHA RNAi clone A +): 7.45 nM
IC50 ([2]; BCKDHA RNAi clone A -): 7.58 nM and 7.81 nM
IC50 ([2]; BCKDHA RNAi clone B -): 7.47 nM
IC50 ([2]; EndoG RNAi clone A +): 7.75 nM
IC50 ([2]; EndoG RNAi clone A -): 8.23 nM and 7.93 nM and 7.81 nM
IC50 ([2]; EndoG RNAi clone B +): 7.63 nM and 7.94 nM and 8.26 nM
IC50 ([2]; EndoG RNAi clone B -): 7.81 nM
IC50 ([2]; FLA1BP RNAi clone A -): 6.66 nM
IC50 ([2]; FLA1BP RNAi clone B +): 7.81 nM and 7.59 nM
IC50 ([2]; FLA1BP RNAi clone B -): 7.64 nM and 7.01 nM
IC50 ([2]; RHS5 RNAi clone A +): 8.05 nM and 7.59 nM
IC50 ([2]; RHS5 RNAi clone A -): 7.93 nM
IC50 ([2]; RHS5 RNAi clone B +): 8.37 nM and 7.06 nM
IC50 ([2]; Trypanosoma brucei, BCKDHA RNAi clone A +): 7.99 nM
IC50 ([2]; Trypanosoma brucei, BCKDHA RNAi clone A -): 7.98 nM
IC50 ([2]; Trypanosoma brucei, BCKDHA RNAi clone B +): 8.39 nM
IC50 ([2]; Trypanosoma brucei, BCKDHA RNAi clone B -): 7.41 nM
IC50 ([2]; Trypanosoma brucei, EndoG RNAi clone A +): 8.04 nM
IC50 ([2]; Trypanosoma brucei, EndoG RNAi clone A -): 8.17 nM
IC50 ([2]; Trypanosoma brucei, EndoG RNAi clone B +): 8.04 nM
IC50 ([2]; Trypanosoma brucei, EndoG RNAi clone B -): 7.92 nM
IC50 ([2]; Trypanosoma brucei, FLA1BP RNAi clone A +): 8.1 nM
IC50 ([2]; Trypanosoma brucei, FLA1BP RNAi clone A -): 7.7 nM
IC50 ([2]; Trypanosoma brucei, FLA1BP RNAi clone B +): 8.04 nM
IC50 ([2]; Trypanosoma brucei, FLA1BP RNAi clone B -): 7.46 nM
IC50 ([2]; Trypanosoma brucei, RHS5 RNAi clone A +): 8.1 nM
IC50 ([2]; Trypanosoma brucei, RHS5 RNAi clone A -): 7.87 nM
IC50 ([2]; Trypanosoma brucei, RHS5 RNAi clone B +): 8.3 nM
IC50 ([2]; Trypanosoma brucei, RHS5 RNAi clone B -): 7.76 nM
Inhibition (%) (T. b. brucei BS221; BS221, 0.015625 µM): 98% and 95%
Inhibition (%) (T. b. brucei BS221; BS221, 0.25 µM): 98%
Inhibition (%) (T. b. brucei BS221; BS221, 1 µM): 98%
Inhibition (%) (T. b. brucei BS221; BS221, 4 µM): 98%
Inhibition (%) (T. b. brucei BS221; BS221, 16 µM): 98%
inhibition at 0.000244141 µM (T. b. brucei BS221; Trypanosoma brucei, BS221, 0.000244141 µM): 0%
inhibition at 0.000976563 µM (T. b. brucei BS221; Trypanosoma brucei, BS221, 0.000976563 µM): 0%
inhibition at 0.015625 µM (T. b. brucei BS221; Trypanosoma brucei, BS221, 0.015625 µM): 97%
inhibition at 0.0625 µM (T. b. brucei BS221; Trypanosoma brucei, BS221, 0.0625 µM): 99%
inhibition at 0.25 µM (T. b. brucei BS221; Trypanosoma brucei, BS221, 0.25 µM): 99%
inhibition at 1 µM (T. b. brucei BS221; Trypanosoma brucei, BS221, 1 µM): 99%
inhibition at 4 µM (T. b. brucei BS221; Trypanosoma brucei, BS221, 4 µM): 100%
inhibition at 16 µM (T. b. brucei BS221; Trypanosoma brucei, BS221, 16 µM): 99%
inhibition at 64 µM (T. b. brucei BS221; Trypanosoma brucei, BS221, 64 µM): 99%
IC50 (T. b. brucei BS221; Trypanosoma brucei): 6.8 nM
EC50 (T. b. brucei BS221; Trypanosoma brucei, BS221, mean and SEM, n = 2, read-out: EC50, parental line of AT1-KO): 6.4 ± 0.4 nM
IC50 (T. b. brucei BS221): 6.1 nM and 5.4 nM and 7.3 nM
% analogue remaining, EXP 1 / EXP 2 ([3]; microsomes, 0 min, 5 µM): 100%
% analogue remaining, Mean ([3]; microsomes, 0 min, 5 µM): 100%
metabolic stability ([3]; s9, 0.5 h): metabolically stable
% analogue 9 remaining, EXP 1 / EXP 2 ([4]; microsomes, 0 min, 5 µM): 100%
% analogue 9 remaining, Mean ([4]; microsomes, 0 min, 5 µM): 100%
metabolic stability ([4]; s9, 0.5 h): metabolically stable
Inhibition (%) ([5]; TbAT1KO, 0.000976563 µM): 0% and 2%
Inhibition (%) ([5]; TbAT1KO, 0.00390625 µM): 5% and 10% and 0%
Inhibition (%) ([5]; TbAT1KO, 0.25 µM): 89% and 94% and 60% and 62%
Inhibition (%) ([5]; TbAT1KO, 64 µM): 100%
inhibition at 1 µM ([5]; Trypanosoma brucei, TbAT1KO, 1 µM): 98%
inhibition at 4 µM ([5]; Trypanosoma brucei, TbAT1KO, 4 µM): 99%
inhibition at 16 µM ([5]; Trypanosoma brucei, TbAT1KO, 16 µM): 99%
inhibition at 64 µM ([5]; Trypanosoma brucei, TbAT1KO, 64 µM): 99%
EC50 ([5]; Trypanosoma brucei, read-out: EC50 upon AT1-KO): 150 ± 30 nM

Reference: PMC6895180 (Nature Communications, 2019)
